This passage reports IC50 results from BindingDB's records for doi:10.1021/jm0494669 (Italy. Vinc, 2004).

What is called IC50 is the point on the concentration scale where inhibition reaches its midpoint. High values mean weaker potency in that assay, low ones greater potency in that assay.

The assay concerns the target RNA-directed RNA polymerase (Hepacivirus hominis, UniProt Q8JXU8). Kind of assay: Inhibitory concentration required to inhibit HCV RNA dependent RNA polymerase Nonstructural protein 5B is determined.

Sequence of RNA-directed RNA polymerase (Q8JXU8 whole entry): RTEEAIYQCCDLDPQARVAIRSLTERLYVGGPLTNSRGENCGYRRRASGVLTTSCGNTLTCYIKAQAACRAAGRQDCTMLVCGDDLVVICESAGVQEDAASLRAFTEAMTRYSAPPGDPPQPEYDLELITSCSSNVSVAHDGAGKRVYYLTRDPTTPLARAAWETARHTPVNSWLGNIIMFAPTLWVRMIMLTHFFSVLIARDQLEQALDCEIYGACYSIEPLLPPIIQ

With `O=C(O)C(=O)CC(=O)c1ccccc1`, the IC50 amounted to 5.7 µM.
